Assay results reported in the kinase profiling compilation of Christmann-Franck et al. (2016).

Columns and labels:
Test in all cases: KINOMEscan competition binding
Conditions in all cases: compound 10.0 µM
ERBB2 (human) = ERBB2 (human) (UniProt P04626)
NLK (human) = NLK (human) (UniProt Q9UBE8)
CSNK1G1 (human) = CSNK1G1 (human) (UniProt Q9HCP0)
MAP3K11 (human) = MAP3K11 (human) (UniProt Q16584)
CSNK1E (human) = CSNK1E (human) (UniProt P49674)
TLK2 (human) = TLK2 (human) (UniProt Q86UE8)
RET (human) = RET (human) (UniProt P07949)
PIK3C2B (human) = PIK3C2B (human) (UniProt O00750)
FGFR3 (human) = FGFR3 (human) (UniProt P22607)
CSNK1D (human) = CSNK1D (human) (UniProt P48730)
MAPK11 (human) = MAPK11 (human) (UniProt Q15759)
PIK3CB (human) = PIK3CB (human) (UniProt P42338)
CDC42BPA (human) = CDC42BPA (human) (UniProt Q5VT25)
MARK2 (human) = MARK2 (human) (UniProt Q7KZI7)
CDK14 (human) = CDK14 (human) (UniProt O94921)
MINK1 (human) = MINK1 (human) (UniProt Q8N4C8)
OXSR1 (human) = OXSR1 (human) (UniProt O95747)
PAK2 (human) = PAK2 (human) (UniProt Q13177)
IGF1R (human) = IGF1R (human) (UniProt P08069)
AXL (human) = AXL (human) (UniProt P30530)
TESK1 (human) = TESK1 (human) (UniProt Q15569)
CDK7 (human) = CDK7 (human) (UniProt P50613)
DYRK2 (human) = DYRK2 (human) (UniProt Q92630)
PRPF4B (human) = PRPF4B (human) (UniProt Q13523)
CSNK1G3 (human) = CSNK1G3 (human) (UniProt Q9Y6M4)
MERTK (human) = MERTK (human) (UniProt Q12866)
DAPK2 (human) = DAPK2 (human) (UniProt Q9UIK4)
STK33 (human) = STK33 (human) (UniProt Q9BYT3)
VRK2 (human) = VRK2 (human) (UniProt Q86Y07)
FER (human) = FER (human) (UniProt P16591)
RIOK2 (human) = RIOK2 (human) (UniProt Q9BVS4)
PRKAA1 (human) = PRKAA1 (human) (UniProt Q13131)
EPHA8 (human) = EPHA8 (human) (UniProt P29322)
CASK (human) = CASK (human) (UniProt O14936)
ACVR2B (human) = ACVR2B (human) (UniProt Q13705)
INSRR (human) = INSRR (human) (UniProt P14616)
CDKL2 (human) = CDKL2 (human) (UniProt Q92772)
LYN (human) = LYN (human) (UniProt P07948)
ERBB4 (human) = ERBB4 (human) (UniProt Q15303)
EPHB2 (human) = EPHB2 (human) (UniProt P29323)

DAPK2 (human), sequence (Q9UIK4 whole entry, looked up): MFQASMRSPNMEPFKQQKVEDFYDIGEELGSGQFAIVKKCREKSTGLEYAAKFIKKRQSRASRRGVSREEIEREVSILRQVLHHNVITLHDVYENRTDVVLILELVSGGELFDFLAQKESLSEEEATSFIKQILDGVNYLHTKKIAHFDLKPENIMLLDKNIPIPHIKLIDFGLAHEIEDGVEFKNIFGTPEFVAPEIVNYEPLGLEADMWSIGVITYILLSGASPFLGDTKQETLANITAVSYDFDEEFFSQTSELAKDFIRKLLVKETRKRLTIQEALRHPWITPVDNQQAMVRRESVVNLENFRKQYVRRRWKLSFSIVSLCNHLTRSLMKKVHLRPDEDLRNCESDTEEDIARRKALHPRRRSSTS
CSNK1E (human), sequence (P49674 whole entry, looked up): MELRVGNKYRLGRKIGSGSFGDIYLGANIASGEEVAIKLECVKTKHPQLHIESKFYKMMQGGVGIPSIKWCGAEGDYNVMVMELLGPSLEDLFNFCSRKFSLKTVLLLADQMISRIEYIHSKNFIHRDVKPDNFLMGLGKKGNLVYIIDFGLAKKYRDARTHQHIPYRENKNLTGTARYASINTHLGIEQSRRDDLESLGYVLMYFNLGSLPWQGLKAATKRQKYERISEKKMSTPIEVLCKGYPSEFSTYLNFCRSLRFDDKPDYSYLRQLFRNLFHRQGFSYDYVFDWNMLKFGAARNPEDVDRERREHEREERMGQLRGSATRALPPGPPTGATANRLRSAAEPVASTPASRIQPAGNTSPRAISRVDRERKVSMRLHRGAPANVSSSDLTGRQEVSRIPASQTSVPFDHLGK
CDKL2 (human), sequence (Q92772 whole entry, looked up): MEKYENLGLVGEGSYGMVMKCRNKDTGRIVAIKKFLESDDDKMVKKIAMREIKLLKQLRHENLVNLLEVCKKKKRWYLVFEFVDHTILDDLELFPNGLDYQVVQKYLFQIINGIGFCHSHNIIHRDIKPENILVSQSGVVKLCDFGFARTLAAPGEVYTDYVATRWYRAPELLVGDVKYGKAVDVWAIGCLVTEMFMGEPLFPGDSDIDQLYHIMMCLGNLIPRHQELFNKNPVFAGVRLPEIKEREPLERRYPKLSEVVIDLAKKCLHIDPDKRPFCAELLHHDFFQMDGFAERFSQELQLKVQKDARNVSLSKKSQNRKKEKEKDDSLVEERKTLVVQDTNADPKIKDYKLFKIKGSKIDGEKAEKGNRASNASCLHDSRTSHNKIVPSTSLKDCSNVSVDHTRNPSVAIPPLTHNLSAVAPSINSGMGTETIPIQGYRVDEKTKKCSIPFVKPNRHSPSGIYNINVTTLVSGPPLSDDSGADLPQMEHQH
INSRR (human), sequence (P14616 whole entry, looked up): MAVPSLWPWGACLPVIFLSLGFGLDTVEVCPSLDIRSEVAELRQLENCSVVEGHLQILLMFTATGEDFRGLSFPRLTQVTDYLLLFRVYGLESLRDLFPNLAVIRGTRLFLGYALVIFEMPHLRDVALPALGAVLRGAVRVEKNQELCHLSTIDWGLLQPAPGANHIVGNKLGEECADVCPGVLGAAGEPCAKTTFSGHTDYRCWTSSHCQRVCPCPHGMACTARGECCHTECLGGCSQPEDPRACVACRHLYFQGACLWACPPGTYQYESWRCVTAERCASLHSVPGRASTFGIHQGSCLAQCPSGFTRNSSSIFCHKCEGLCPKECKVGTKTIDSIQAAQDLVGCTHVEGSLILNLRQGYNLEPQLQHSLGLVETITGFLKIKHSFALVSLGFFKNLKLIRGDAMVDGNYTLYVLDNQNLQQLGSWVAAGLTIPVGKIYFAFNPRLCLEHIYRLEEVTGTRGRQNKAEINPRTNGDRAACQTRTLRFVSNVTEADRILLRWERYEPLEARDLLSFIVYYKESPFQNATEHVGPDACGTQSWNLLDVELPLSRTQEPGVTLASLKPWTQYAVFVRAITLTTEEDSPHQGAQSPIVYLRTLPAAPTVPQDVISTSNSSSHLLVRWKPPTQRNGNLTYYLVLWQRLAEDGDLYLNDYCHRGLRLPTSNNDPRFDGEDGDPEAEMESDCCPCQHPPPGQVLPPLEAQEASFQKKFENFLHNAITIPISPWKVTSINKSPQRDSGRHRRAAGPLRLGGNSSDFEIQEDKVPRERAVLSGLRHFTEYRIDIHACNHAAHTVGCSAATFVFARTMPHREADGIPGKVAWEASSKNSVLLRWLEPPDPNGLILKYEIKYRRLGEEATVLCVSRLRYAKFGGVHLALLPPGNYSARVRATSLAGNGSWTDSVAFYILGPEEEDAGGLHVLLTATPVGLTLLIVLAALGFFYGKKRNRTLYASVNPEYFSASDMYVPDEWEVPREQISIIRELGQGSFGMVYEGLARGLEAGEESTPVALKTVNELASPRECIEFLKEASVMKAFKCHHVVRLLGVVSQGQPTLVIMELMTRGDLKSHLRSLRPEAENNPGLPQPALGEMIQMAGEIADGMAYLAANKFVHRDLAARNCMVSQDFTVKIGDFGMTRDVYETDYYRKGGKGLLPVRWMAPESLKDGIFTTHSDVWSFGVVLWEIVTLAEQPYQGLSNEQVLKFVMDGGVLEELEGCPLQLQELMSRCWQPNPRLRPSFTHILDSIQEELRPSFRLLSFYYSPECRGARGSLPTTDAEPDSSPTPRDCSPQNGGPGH
CSNK1G3 (human), sequence (Q9Y6M4 whole entry, looked up): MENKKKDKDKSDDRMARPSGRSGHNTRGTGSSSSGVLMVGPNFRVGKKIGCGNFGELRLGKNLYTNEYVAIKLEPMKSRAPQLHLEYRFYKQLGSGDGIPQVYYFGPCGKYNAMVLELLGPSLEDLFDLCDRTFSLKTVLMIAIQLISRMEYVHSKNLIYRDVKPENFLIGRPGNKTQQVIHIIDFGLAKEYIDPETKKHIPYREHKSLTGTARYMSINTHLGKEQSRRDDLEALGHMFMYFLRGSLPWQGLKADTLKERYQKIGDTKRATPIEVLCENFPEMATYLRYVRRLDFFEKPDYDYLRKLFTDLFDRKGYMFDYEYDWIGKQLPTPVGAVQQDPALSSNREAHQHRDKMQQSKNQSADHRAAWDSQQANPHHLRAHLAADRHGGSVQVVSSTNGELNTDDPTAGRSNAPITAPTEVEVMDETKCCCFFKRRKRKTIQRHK
TESK1 (human), sequence (Q15569 whole entry, looked up): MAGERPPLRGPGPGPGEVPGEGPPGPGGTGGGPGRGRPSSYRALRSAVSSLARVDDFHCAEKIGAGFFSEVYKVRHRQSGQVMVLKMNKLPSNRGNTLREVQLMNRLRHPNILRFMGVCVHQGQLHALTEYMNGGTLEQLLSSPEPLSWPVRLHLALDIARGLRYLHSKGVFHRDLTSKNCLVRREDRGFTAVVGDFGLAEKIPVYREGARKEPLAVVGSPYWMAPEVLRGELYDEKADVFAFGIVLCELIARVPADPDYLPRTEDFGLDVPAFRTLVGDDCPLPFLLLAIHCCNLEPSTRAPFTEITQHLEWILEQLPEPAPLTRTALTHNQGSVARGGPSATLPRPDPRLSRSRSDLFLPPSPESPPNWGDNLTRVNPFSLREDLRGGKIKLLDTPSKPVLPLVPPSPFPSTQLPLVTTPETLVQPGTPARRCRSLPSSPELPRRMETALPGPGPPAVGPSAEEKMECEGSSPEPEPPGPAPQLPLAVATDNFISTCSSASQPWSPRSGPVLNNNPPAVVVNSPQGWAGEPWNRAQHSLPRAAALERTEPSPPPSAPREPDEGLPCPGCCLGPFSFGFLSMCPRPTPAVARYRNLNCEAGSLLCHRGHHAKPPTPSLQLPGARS
NLK (human), sequence (Q9UBE8 whole entry, looked up): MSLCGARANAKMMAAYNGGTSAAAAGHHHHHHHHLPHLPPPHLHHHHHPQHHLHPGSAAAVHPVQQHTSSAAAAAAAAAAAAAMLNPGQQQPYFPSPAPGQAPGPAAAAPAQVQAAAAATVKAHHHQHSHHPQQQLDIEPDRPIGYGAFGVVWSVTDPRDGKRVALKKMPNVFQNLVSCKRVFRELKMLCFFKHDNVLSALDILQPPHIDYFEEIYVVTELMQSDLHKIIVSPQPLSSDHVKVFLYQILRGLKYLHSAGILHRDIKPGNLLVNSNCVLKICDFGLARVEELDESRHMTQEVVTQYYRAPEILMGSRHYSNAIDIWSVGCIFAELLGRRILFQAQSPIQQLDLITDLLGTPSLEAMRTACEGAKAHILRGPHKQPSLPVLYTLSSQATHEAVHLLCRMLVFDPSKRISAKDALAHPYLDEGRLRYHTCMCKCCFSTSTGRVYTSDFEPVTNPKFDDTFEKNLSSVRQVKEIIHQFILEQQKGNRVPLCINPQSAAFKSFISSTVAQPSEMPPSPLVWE
CDK7 (human), sequence (P50613 whole entry, looked up): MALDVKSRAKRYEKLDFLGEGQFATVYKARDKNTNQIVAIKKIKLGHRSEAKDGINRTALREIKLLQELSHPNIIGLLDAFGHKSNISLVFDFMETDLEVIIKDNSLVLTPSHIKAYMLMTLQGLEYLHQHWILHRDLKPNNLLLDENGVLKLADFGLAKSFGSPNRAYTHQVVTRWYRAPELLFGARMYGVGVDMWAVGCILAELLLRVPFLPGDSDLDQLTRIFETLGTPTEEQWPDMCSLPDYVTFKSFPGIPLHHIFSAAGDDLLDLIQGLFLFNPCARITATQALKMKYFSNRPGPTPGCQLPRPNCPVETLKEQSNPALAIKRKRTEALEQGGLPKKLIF
CSNK1D (human), sequence (P48730 whole entry, looked up): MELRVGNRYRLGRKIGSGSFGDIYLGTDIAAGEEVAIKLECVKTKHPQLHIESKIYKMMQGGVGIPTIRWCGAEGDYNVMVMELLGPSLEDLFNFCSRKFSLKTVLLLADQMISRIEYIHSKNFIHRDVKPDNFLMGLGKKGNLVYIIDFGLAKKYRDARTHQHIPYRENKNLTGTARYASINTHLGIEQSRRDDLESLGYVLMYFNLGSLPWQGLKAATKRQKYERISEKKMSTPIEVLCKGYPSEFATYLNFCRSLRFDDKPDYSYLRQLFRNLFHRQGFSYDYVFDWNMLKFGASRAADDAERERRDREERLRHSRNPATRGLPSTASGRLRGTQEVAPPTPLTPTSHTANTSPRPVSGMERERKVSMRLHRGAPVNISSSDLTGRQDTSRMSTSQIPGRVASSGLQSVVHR

Structure (SMILES) | kinase still bound, per cent of control (ERBB2 (human)) [%] | kinase still bound, per cent of control (NLK (human)) [%] | kinase still bound, per cent of control (CSNK1G1 (human)) [%] | kinase still bound, per cent of control (MAP3K11 (human)) [%] | kinase still bound, per cent of control (CSNK1E (human)) [%] | kinase still bound, per cent of control (TLK2 (human)) [%] | kinase still bound, per cent of control (RET (human)) [%] | kinase still bound, per cent of control (PIK3C2B (human)) [%] | kinase still bound, per cent of control (FGFR3 (human)) [%] | kinase still bound, per cent of control (CSNK1D (human)) [%] | kinase still bound, per cent of control (MAPK11 (human)) [%] | kinase still bound, per cent of control (PIK3CB (human)) [%] | kinase still bound, per cent of control (CDC42BPA (human)) [%] | kinase still bound, per cent of control (MARK2 (human)) [%] | kinase still bound, per cent of control (CDK14 (human)) [%] | kinase still bound, per cent of control (MINK1 (human)) [%] | kinase still bound, per cent of control (OXSR1 (human)) [%] | kinase still bound, per cent of control (PAK2 (human)) [%] | kinase still bound, per cent of control (IGF1R (human)) [%] | kinase still bound, per cent of control (AXL (human)) [%] | other results
O=c1cc(N2CCOCC2)oc2c(-c3cccc4c3sc3ccccc34)cccc12 | 100 | 88 | 92 | 97 | 76 | 80 | 100 | 20 | 80 | 89 | 90 | 0 | 94 | 90 | 100 | 100 | 100 | 61 | 97 | 100 | kinase still bound, per cent of control (TESK1 (human)): 72%; kinase still bound, per cent of control (CDK7 (human)): 100%; kinase still bound, per cent of control (DYRK2 (human)): 100%; kinase still bound, per cent of control (PRPF4B (human)): 78%; kinase still bound, per cent of control (CSNK1G3 (human)): 100%; kinase still bound, per cent of control (MERTK (human)): 100%; kinase still bound, per cent of control (DAPK2 (human)): 90%; kinase still bound, per cent of control (STK33 (human)): 100%; kinase still bound, per cent of control (VRK2 (human)): 100%; kinase still bound, per cent of control (FER (human)): 100%; kinase still bound, per cent of control (RIOK2 (human)): 22%; kinase still bound, per cent of control (PRKAA1 (human)): 100%; kinase still bound, per cent of control (EPHA8 (human)): 82%; kinase still bound, per cent of control (CASK (human)): 100%; kinase still bound, per cent of control (ACVR2B (human)): 98%; kinase still bound, per cent of control (INSRR (human)): 100%; kinase still bound, per cent of control (CDKL2 (human)): 96%; kinase still bound, per cent of control (LYN (human)): 95%; kinase still bound, per cent of control (ERBB4 (human)): 92%; kinase still bound, per cent of control (EPHB2 (human)): 91%
O=C1NC(=O)/C(=C/c2ccc3nccc(-c4ccncc4)c3c2)S1 | 66 | 84 | 20 | 98 | 2.6 | 87 | 98 | 0.15 | 100 | 3.6 | 86 | 7.1 | 90 | 74 | 37 | 49 | 87 | 21 | 100 | 7.6 | kinase still bound, per cent of control (TESK1 (human)): 84%; kinase still bound, per cent of control (CDK7 (human)): 1.7%; kinase still bound, per cent of control (DYRK2 (human)): 5.4%; kinase still bound, per cent of control (PRPF4B (human)): 88%; kinase still bound, per cent of control (CSNK1G3 (human)): 2.4%; kinase still bound, per cent of control (MERTK (human)): 14%; kinase still bound, per cent of control (DAPK2 (human)): 1.7%; kinase still bound, per cent of control (STK33 (human)): 0.55%; kinase still bound, per cent of control (VRK2 (human)): 81%; kinase still bound, per cent of control (FER (human)): 50%; kinase still bound, per cent of control (RIOK2 (human)): 37%; kinase still bound, per cent of control (PRKAA1 (human)): 88%; kinase still bound, per cent of control (EPHA8 (human)): 90%; kinase still bound, per cent of control (CASK (human)): 59%; kinase still bound, per cent of control (ACVR2B (human)): 20%; kinase still bound, per cent of control (INSRR (human)): 70%; kinase still bound, per cent of control (CDKL2 (human)): 64%; kinase still bound, per cent of control (LYN (human)): 92%; kinase still bound, per cent of control (ERBB4 (human)): 65%; kinase still bound, per cent of control (EPHB2 (human)): 86%
